Experimental findings from the supplement of paper PMC12698765 are described below.

The test system of assay [1] is 409B2 hiPSC (iCRISPR Cas9, FRMD7 editing). Description: cell survival relative to solvent control (fold (ratio to mock)); higher = more surviving cells. As for the experimental part: (§1)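 Subset screen of 55 drugs tested at 5 concentrations around the effective screening dose, in 409B2 iCRISPR Cas9 hiPSCs editing FRMD7 with a ssDNA donor. Drugs were applied for 24 h. Viability was read by resazurin and editing outcomes by amplicon sequencing (HDR, NHEJ <2 bp microhomology, MMEJ ≥2 bp microhomology). Values are relative to solvent mock controls; two biological replicates.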

For assay [2] the test system is unchanged. Description: NHEJ-attributed indel frequency relative to solvent control (fold (ratio to mock)); higher = more NHEJ outcomes. As for the experimental part:
as §1

Assay [3] shares this test system. Briefly: MMEJ-attributed deletion frequency relative to solvent control (fold (ratio to mock)); higher = more MMEJ outcomes. The procedure: as §1
For assay [4] the test system is unchanged. Briefly: HDR (precise edit) frequency relative to solvent control (fold (ratio to mock)); higher = more homology-directed repair outcomes. The procedure: as §1

The structures appear in SMILES notation. Where a name gives a salt, the structure may show the parent alone. ± gives the standard deviation of the averaged measurements.

Consider `O=C1CN(/N=C/c2ccc(-c3ccc([N+](=O)[O-])cc3)o2)C(=O)N1` [Dantrolene, sodium salt] (in DMSO), for which the cell survival was found to be 0.934 in assay [1] (2000 nM); 1.39 in assay [1] (5000 nM); 1.14 in assay [1] (10000 nM); 1.33 in assay [1] (20000 nM); 1.33 in assay [1] (50000 nM). The NHEJ-attributed indel frequency in assay [2] (2000 nM) is 0.941 ± 0.052; in assay [2] (5000 nM), 0.9996 ± 0.0056; in assay [2] (10000 nM), 1.06 ± 0.0076; in assay [2] (20000 nM), 1.199 ± 0.0027; in assay [2] (50000 nM), 1.24 ± 0.034. Further, the MMEJ-attributed deletion frequency came out at 1.09 ± 0.25 in assay [3] (2000 nM); 0.966 ± 0.099 in assay [3] (5000 nM); 0.9399 ± 0.0032 in assay [3] (10000 nM); 0.997 ± 0.048 in assay [3] (20000 nM); 0.979 ± 0.13 in assay [3] (50000 nM). Besides, the HDR in assay [4] (2000 nM) stood at 1.04 ± 0.091; in assay [4] (5000 nM), 0.873 ± 0.12; in assay [4] (10000 nM), 0.851 ± 0.068; in assay [4] (20000 nM), 0.547 ± 0.039; in assay [4] (50000 nM), 0.508 ± 0.039.

Consider `CC(O)C(=O)O` (stereo not given) [lactate] (in H2O), for which the cell survival in assay [1] (200 nM) amounted to 1.15; in assay [1] (500 nM), 1.08; in assay [1] (1000 nM), 0.963; in assay [1] (2000 nM), 1.06; in assay [1] (5000 nM), 1.15. Further, the NHEJ-attributed indel frequency is 0.984 ± 0.021 in assay [2] (200 nM); 1.02 ± 0.028 in assay [2] (500 nM); 1.04 ± 0.03 in assay [2] (1000 nM); 0.998 ± 0.047 in assay [2] (2000 nM); 1 ± 0.013 in assay [2] (5000 nM). Besides, the MMEJ-attributed deletion frequency in assay [3] (200 nM) is 1.01 ± 0.044; in assay [3] (500 nM) it was 0.849 ± 0.074; in assay [3] (1000 nM), 0.952 ± 0.094; in assay [3] (2000 nM), 1.05 ± 0.096; in assay [3] (5000 nM), 1 ± 0.094. The HDR was 1.02 ± 0.065 in assay [4] (200 nM); 0.941 ± 0.056 in assay [4] (500 nM); 0.946 ± 0.091 in assay [4] (1000 nM); 1.01 ± 0.1 in assay [4] (2000 nM); 1.005 ± 0.0083 in assay [4] (5000 nM).

Consider `CC(=O)O[C@@]12CO[C@@H]1C[C@@H](O)[C@@]1(C)C(=O)[C@H](O)C3=C(C)[C@@H](O)C[C@@](O)([C@@H](OC(=O)c4ccccc4)[C@H]21)C3(C)C` [10-DAB (10-Deacetylbaccatin)] (in DMSO), for which the cell survival in assay [1] (200 nM) is 0.914; in assay [1] (500 nM) it was 1.06; in assay [1] (1000 nM), 0.177; in assay [1] (2000 nM), 0.00356; in assay [1] (5000 nM), 0.00663. In addition, the NHEJ-attributed indel frequency turned out to be 0.906 ± 0.017 in assay [2] (200 nM); 0.983 ± 0.014 in assay [2] (500 nM); 0.918 ± 0.075 in assay [2] (1000 nM); 0.488 ± 0.08 in assay [2] (2000 nM); 0.522 ± 0.1 in assay [2] (5000 nM). Further, the MMEJ-attributed deletion frequency in assay [3] (200 nM) turned out to be 1.06 ± 0.14; in assay [3] (500 nM), 1.02 ± 0.049; in assay [3] (1000 nM), 0.936 ± 0.083; in assay [3] (2000 nM), 0.561 ± 0.18; in assay [3] (5000 nM) it was 0.4879 ± 0.0029. The HDR in assay [4] (200 nM) was determined as 1.063 ± 0.0036; in assay [4] (500 nM), 1 ± 0.049; in assay [4] (1000 nM), 0.816 ± 0.17; in assay [4] (2000 nM), 0.304 ± 0.013; in assay [4] (5000 nM), 0.339 ± 0.06.
